From ChEMBL document CHEMBL4837215, “Application of cation-π interactions in enzyme-substrate binding: Design, synthesis, biological evaluation, and molecular dynamics insights of novel hydrophilic substrates for NQO1” (Eur J Med Chem, 2021)
Converted amounts (≈) assume the structure as drawn. The source made the active and inactive calls. The rule behind the calls is not given here.

Key:
[1] = target: NAD(P)H dehydrogenase [quinone] 1 (Homo sapiens) (UniProt P15559); experiment: Substrate activity at recombinant human NQO1 assessed as enzymatic reduction rate at 10 uM
A549 [2] = experiment: Cytotoxicity against human A549 cells overexpressing NQO1 assessed as reduction in cell viability incubated for 72 hrs by MTT assay; format: functional, cell-based; details: A549, 72 h
A549 [3] = experiment: Induction of apoptosis in human A549 cells assessed as condensed nuclei at 1 to 10 uM measured after 24 hrs by DAPI based confocal laser scanning microscopic method; format: functional, cell-based; details: dose 1-10 µM
[4] = Intrinsic solubility of the compound after 8 hrs by potentiometric titration method; format: physicochemical; details: read-out: Intrinsic_solubility
[5] = Solubility of the compound in pH 3 after 8 hrs by potentiometric titration method; format: physicochemical; details: buffer
[6] = Lipophilicity, logD of the compound at pH 7.4 by potentiometric titration method; format: physicochemical; details: buffer
L02 = experiment: Cytotoxicity against NQO1-deficient human L02 cells assessed as reduction in cell viability incubated for 72 hrs by MTT assay; format: cell-based; details: L02, 72 h
[7] = Selectivity index, ratio of IC50 for NQO1-deficient human L02 cells to IC50 for human A549 cells overexpressing NQO1 incubated for 72 hrs by MTT assay
A549/TR = experiment: Cytotoxicity against human A549/Taxol cells overexpressing NQO1 assessed as reduction in cell viability incubated for 72 hrs by MTT assay; format: functional, cell-based
A549 [8] = experiment: Cytotoxicity against human DPP-resistant A549 cells overexpressing NQO1 assessed as reduction in cell viability incubated for 72 hrs by MTT assay; format: functional, cell-based; details: A549, 72 h
NCI-H596 = experiment: Cytotoxicity against NQO1-deficient human NCI-H596 cells assessed as reduction in cell viability incubated for 72 hrs by MTT assay; format: functional, cell-based; details: NCI-H596, 72 h
A549 [9] = experiment: Cytotoxicity against NQO1-deficient human A549 cells assessed as reduction in cell viability pretreated with DIC followed by compound addition and incubated for 72 hrs by MTT assay; format: functional, cell-based
[10] = Selectivity index, ratio of IC50 for NQO1-deficient human NCI-H596 cells to IC50 for human A549 cells overexpressing NQO1 incubated for 72 hrs by MTT assay
[11] = Selectivity index, ratio of IC50 for human A549 cells overexpressing NQO1 to IC50 for NQO1-deficient human A549 cells assessed as reduction in cell viability pretreated with DIC followed by compound addition and measured after 72 hrs by MTT assay
A549 [12] = experiment: Induction of ROS generation in human A549 cells at 1 to 10 uM incubated for 3 hrs by DCFH-DA staining based confocal laser scanning microscopic method; format: functional, cell-based; details: dose 1-10 µM
A549 [13] = experiment: Induction of ROS generation in human A549 cells at 10 uM pretreated with DIC or NAC for 1 hr followed by compound addition and measured after 3 hrs by DCFH-DA staining based confocal laser scanning microscopic method; format: functional, cell-based
A549 [14] = experiment: Induction of superoxide anion generation in human A549 cells at 1 to 10 uM incubated for 3 hrs by […] staining based confocal laser scanning microscopic method; format: functional, cell-based; details: dose 1-10 µM
A549 [15] = experiment: Induction of superoxide anion generation in human A549 cells at 10 uM pretreated with DIC or NAC for 1 hr followed by compound addition and measured after 3 hrs by […] staining based confocal laser scanning microscopic method; format: functional, cell-based
[16] = target: NAD(P)H dehydrogenase [quinone] 1 (Homo sapiens) (UniProt P15559); experiment: Induction of recombinant human NQO1-mediated ROS generation assessed as rate of reduction of cytochrome C at 25 uM by spectrophotometric assay; details: filed as activator
[17] = target: NAD(P)H dehydrogenase [quinone] 1 (Homo sapiens) (UniProt P15559); experiment: Induction of recombinant human NQO1-mediated ROS generation assessed as rate of reduction of cytochrome C at 25 uM in presence of DIC by spectrophotometric assay

NAD(P)H dehydrogenase [quinone] 1 (Homo sapiens), sequence (P15559 whole entry): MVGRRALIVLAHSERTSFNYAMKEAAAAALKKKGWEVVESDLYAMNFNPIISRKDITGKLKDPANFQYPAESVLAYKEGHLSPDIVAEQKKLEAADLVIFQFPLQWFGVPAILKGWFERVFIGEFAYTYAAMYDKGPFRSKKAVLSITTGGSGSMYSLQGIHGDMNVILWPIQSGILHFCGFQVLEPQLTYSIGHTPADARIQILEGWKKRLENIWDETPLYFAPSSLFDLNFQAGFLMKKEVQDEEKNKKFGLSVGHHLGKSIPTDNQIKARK

| SMILES | Activity [1] [µmol/min] | IC50 (A549 [2]) [µM] | IC50 (L02) [µM] | Ratio IC50 [7] | also measured |
| --- | --- | --- | --- | --- | --- |
| Cc1cc2c(cc1C)-c1oc(CN3CCN(C)CC3)c(C)c1C(=O)C2=O | 1260 | 2.4 | 36.2 | 15.06 | Activity (A549 [3]): Active; solubility at 8 h [4]: 110 µg/mL (≈ 312 µM); solubility at 8 h [5]: > 1000 µg/mL; logD [6]: 1.97; IC50 (A549/TR): 4.5 µM; IC50 (A549 [8]): 4.8 µM; IC50 (NCI-H596): 27 µM; IC50 (A549 [9]): 30 µM; Ratio IC50 [10]: 11; Ratio IC50 [11]: >12.5; Activity (A549 [12]): Active; Activity (A549 [13]): inactive; Activity (A549 [14]): Active; Activity (A549 [15]): inactive; Activity [16]: Active; Activity [17]: inactive |
| Cc1cc2c(cc1C)-c1oc(CN3CCC(N4CCCCC4)CC3)c(C)c1C(=O)C2=O | 795 | 9.1 | 40.5 | 4.45 |  |
| CC1(C)CCC2=C(O1)c1ccccc1C(=O)C2=O [LAPACHONE] |  |  | 9.6 | 1.68 | IC50 (A549/TR): 11 µM; IC50 (A549 [8]): 16 µM; IC50 (NCI-H596): 27 µM; IC50 (A549 [9]): 29 µM; Ratio IC50 [10]: 4.7; Ratio IC50 [11]: 5.1 |
| Cc1cc2c(cc1C)-c1oc(CN3CCN(S(C)(=O)=O)CC3)c(C)c1C(=O)C2=O | 871 | 7.2 | 31.2 | 4.33 |  |
| Cc1cc2c(cc1C)-c1oc(CN3CCCCC3)c(C)c1C(=O)C2=O | 768 | 12 | 45.5 | 3.79 |  |
| Cc1cc2c(cc1C)-c1oc(CN3CCN(CCO)CC3)c(C)c1C(=O)C2=O | 1160 | 3.1 | 35.8 | 11.56 | solubility at 8 h [4]: 61 µg/mL (≈ 159 µM); solubility at 8 h [5]: > 1000 µg/mL; logD [6]: 2.01 |
| Cc1cc2c(cc1C)-c1occ(C)c1C(=O)C2=O | 690 | 7.4 | 31.4 | 4.24 |  |

Continued, in another order:

| Activity [1] [µmol/min] | SMILES | IC50 (A549 [2]) [µM] | IC50 (L02) [µM] | Ratio IC50 [7] | also measured |
| --- | --- | --- | --- | --- | --- |
| 848 | Cc1cc2c(cc1C)-c1oc(CN3CCC(N4CCCC4)CC3)c(C)c1C(=O)C2=O | 8.7 | 31.2 | 3.58 |  |
| 1100 | Cc1cc2c(cc1C)-c1oc(CN3CCN(C4CC4)CC3)c(C)c1C(=O)C2=O | 3.9 | 34.6 | 8.86 |  |
| 904 | Cc1cc2c(cc1C)-c1oc(CN3CCC(N4CCN(C)CC4)CC3)c(C)c1C(=O)C2=O | 6.8 | 29.8 | 4.38 |  |
| 951 | Cc1cc2c(cc1C)-c1oc(CN3CCC(N4CCOCC4)CC3)c(C)c1C(=O)C2=O | 5.6 | 28.9 | 5.16 |  |
| 1200 | CCN1CCN(Cc2oc3c(c2C)C(=O)C(=O)c2cc(C)c(C)cc2-3)CC1 | 2.9 | 35.8 | 12.36 | solubility at 8 h [4]: 82 µg/mL (≈ 224 µM); solubility at 8 h [5]: > 1000 µg/mL; logD [6]: 1.99 |
| 704 | Cc1cc2c(cc1C)-c1oc(CN(C)C)c(C)c1C(=O)C2=O | 15 | 46.9 | 3.12 |  |
| 1070 | Cc1cc2c(cc1C)-c1oc(CN3CCN4CCCC4C3)c(C)c1C(=O)C2=O (stereo not given) | 4.3 | 32.9 | 7.66 |  |
| 1030 | Cc1cc2c(cc1C)-c1oc(CN3CCN4CCCCC4C3)c(C)c1C(=O)C2=O (stereo not given) | 4.5 | 31.6 | 7.02 |  |
| 996 | Cc1cc2c(cc1C)-c1oc(CN3CCOCC3)c(C)c1C(=O)C2=O | 4.9 | 28.5 | 5.81 |  |
